According to patent publication US11046670B2, “Piperazinyl norbenzomorphan compounds and methods for using the same” (priority 2015, dated 2021):
Like-named read-outs stand apart in the source and are kept apart here.

Legend:
sigma 1 receptor [1] = target: T1, sigma 1 receptor (Cavia porcellus (Guinea pig), UniProt Q60492); experiment: biochemical; conditions: for inhibition at 10 µM: read-out: σ1 inhibition of radioligand binding
Experimental: (§1) Receptor binding assays were performed by the Psychoactive Drug Screening Program (PDSP) at Chapel Hill, N.C. […] Briefly, Sig1Rs and Sig2Rs were sourced from homogenates of Guinea pig brains and rat livers, respectively. Assessment of Sig1R binding affinity was determined via competition binding assays with the radioligand [3H]-(+)-pentazocine. Sig2R binding affinity was determined through competition binding assays using the radioligand [3H]-ditolylguanidine in the presence of (+)-pentazocine to block Sig1R binding sites. […] The radioactivity in the presence of the test compound is calculated with the following equation and expressed as a percent inhibition: % inhibition=(sample CPM non-specific CPM)/Total CPM−non-specific CPM)×100. The normalization process is carried out in Prism or Excel. To determine secondary binding results, CPM/well are pooled and fitted to a three parameter logistic function for competition binding in Prism v 5.0 to determine IC50 values, which are converted to Ki according to the Cheng-Prusoff equation.

sigma 2 receptor [2] = target: T2, sigma 2 receptor (Rattus norvegicus (Rat), UniProt Q5U3Y7); conditions: for Ki: read-out: σ2 Ki; for Ki(σ1)/Ki(σ2): selectivity σ2 over σ1
T2 sequence (Q5U3Y7 whole entry): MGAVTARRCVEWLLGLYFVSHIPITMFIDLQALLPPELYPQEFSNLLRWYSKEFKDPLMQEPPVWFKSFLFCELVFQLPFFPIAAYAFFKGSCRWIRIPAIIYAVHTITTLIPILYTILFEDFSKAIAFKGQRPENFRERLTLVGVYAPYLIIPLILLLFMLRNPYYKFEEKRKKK
Experimental: (§2) Sigma-2 receptor ligands and their binding assays. […] The compounds were dissolved in 100% DMSO prior to the receptor binding assays, which were performed by the Psychoactive Drug Screening Program (PDSP) at Chapel Hill, N.C. […] Briefly, Sig2Rs were sourced from rat liver homogenates (PC12 cells). The Sig2R ligand binding affinity was determined through competition binding assays using the radioligand [^3H]-ditolylguanidine in the presence of (+)-pentazocine to block Sig1R binding sites. The radioactivity in the presence of the test compound is calculated with the following equation and expressed as a percent inhibition: % inhibition=(sample CPM non-specific CPM)/(Total CPM non-specific CPM)×100 where
(§3) CPM stands for counts per minute. To determine secondary binding data, CPM/well are pooled and fitted to a three parameter logistic function for competition binding in Prism v 5.0 to determine IC50 values, which are converted to K, according to the Cheng-Prusoff equation.
as §1

[3] = system: Wild-type mice (C57BL/6) subjected to Blast (brain injury); experiment: Traumatic Brain Injury, Morris Water Maze after blast; type: in vivo; conditions: seven days of daily treatment beginning the day after injury, compared to Veh
Text: FIG. 10 Traumatic Brain Injury treatment; Morris Water Maze (spatial and long term memory) after blast; Wild-type mice (C57BL/6) were subjected to either a Blast (brain injury) or Sham blast (no brain injury).

[4] = system: Wild-type mice (C57BL/6) subjected to Blast (brain injury); experiment: Traumatic Brain Injury, Barnes Maze after blast; type: in vivo; conditions: seven days of daily treatment beginning the day after injury, compared to Veh
Text: FIG. 9 Traumatic Brain Injury treatment; Barnes Maze (spatial and long term memory) after blast; Wild-type mice (C57BL/6) were subjected to either a Blast (brain injury) or Sham blast (no brain injury).

sigma 2 receptor [5] = target: T2, sigma 2 receptor; experiment: biochemical; conditions: for inhibition at 10 µM: read-out: σ2 inhibition of radioligand binding
Experimental: as §2, §3, §1

sigma 1 receptor [6] = target: T1, sigma 1 receptor; conditions: for Ki: read-out: σ1 Ki
Experimental: as §1

σ2R = σ2R (Homo sapiens (Human), UniProt Q5BJF2); conditions: cited from earlier work
Chain of σ2R (Q5BJF2 whole entry): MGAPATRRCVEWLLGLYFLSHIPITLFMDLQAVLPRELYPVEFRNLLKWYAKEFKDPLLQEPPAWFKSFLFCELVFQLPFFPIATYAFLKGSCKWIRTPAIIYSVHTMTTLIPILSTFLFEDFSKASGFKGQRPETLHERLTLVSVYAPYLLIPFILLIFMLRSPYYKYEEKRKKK

[7] = system: Murine hippocampal neuron slices; experiment: Synaptic long term depression in hippocampal neuron slices
Text: FIG. 13 Effect of SAS-0132 on Synaptic Long Term Depression (inhibition); effect of SAS-0132 on dihydroxyphenylglycine (DHPG) mediated increase in long term depression (LTD).

neuroblastoma cells [8] = experiment: MTT Assay in Neuroblastoma Cells
Experimental: FIG. 15 MTT Assay in Neuroblastoma Cells; Sigma 2 receptor binding ligands were evaluated for effects in neuroblastoma cells.
FIG. 16 MTT Assay in Neuroblastoma Cells; Sigma 2 receptor binding ligands were evaluated for effects in neuroblastoma cells.

[9] = system: proinflammatory cytokines (IL-1β, TNFα, CD14); experiment: Brain levels of proinflammatory cytokines in transgenic mice; type: in vivo; conditions: Thy1-APPLond/Swe+ mice, 60 days of treatment (30 mg/kg)
neuroblastoma cells [10] = experiment: Calcium ion levels in neuroblastoma cells; type: cell-based

T1 sequence (Q60492 whole entry): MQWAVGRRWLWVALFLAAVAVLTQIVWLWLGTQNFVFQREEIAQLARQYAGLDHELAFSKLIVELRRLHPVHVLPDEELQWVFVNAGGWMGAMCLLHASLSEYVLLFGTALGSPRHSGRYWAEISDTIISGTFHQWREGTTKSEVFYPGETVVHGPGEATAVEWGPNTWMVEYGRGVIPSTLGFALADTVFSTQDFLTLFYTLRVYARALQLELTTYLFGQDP

σ2 pKi ± SEM (sigma 2 receptor [2]) | Ki (sigma 2 receptor [2]) [nM] | Ki(σ1)/Ki(σ2) (sigma 2 receptor [2]) | Ki (sigma 1 receptor [6]) [nM] | σ1 pKi ± SEM (sigma 1 receptor [6]) | Compound | other results
6.12 ± 0.07 | 764 |  |  |  | CN1CCN(c2ccc3c(c2)[C@H]2C[C@H]3CCN2S(=O)(=O)c2ccccc2)CC1 [Compound 35] | inhibition at 10 µM (sigma 1 receptor [1]): < 50%
 |  |  |  |  | CCCN1CCN(c2ccc3c(c2)C2CC3CCN2C(=O)OCc2ccccc2)CC1 (centres unmarked) [DKR-1516] | spatial- and long term memory, Morris Water Maze [3]: performed significantly better; spatial- and long term memory, Barnes Maze [4]: performed significantly better
 |  | 6 |  |  | Cc1cccc(-c2ccc3c(c2)[C@H]2C[C@H]3CCN2Cc2ccc3c(c2)OCO3)c1 [Compound 44] | Ki (sigma 1 receptor [1]; σ1 Ki (nM)): 4610 nM; Ki (sigma 1 receptor [1]; σ1 pKi ± SEM): 4570 nM; Ki (sigma 2 receptor [5]): 828 nM
6.8 ± 0.1 | 166 | 6 | 1060 |  | FC(F)(F)c1ccc(-c2ccc3c(c2)[C@H]2C[C@H]3CCN2CCc2ccccc2)cc1 [Compound 42] | Ki (sigma 1 receptor [1]; σ1 pKi ± SEM): 1000 nM
6.88 ± 0.07 | 133 | 3 | 391 | 6.41 ± 0.08 | Cc1cccc(-c2ccc3c(c2)[C@H]2C[C@H]3CCN2C)c1 [Compound 43] | 
6.5 ± 0.1 | 318 | 8 | 2430 | 5.61 ± 0.06 | c1ccc(CN2CC[C@@H]3C[C@@H]2c2cc(N4CCCCC4)ccc23)cc1 [Compound 19] | preference / selectivity for σ2R relative to σ1R (sigma 2 receptor [2]): about 8 fold
 |  |  |  |  | CN1CCN(c2ccc3c(c2)[C@H]2C[C@H]3CCN2)CC1 [Compound 33] | inhibition at 10 µM (sigma 2 receptor [5]): < 50%
 | 92 | 32 | 2980 | 5.53 ± 0.09 | Clc1cc(Cl)cc(CN2CC[C@@H]3C[C@@H]2c2cc(N4CCOCC4)ccc23)c1 [Compound 39] | preference / selectivity for σ2R relative to σ1R (sigma 2 receptor [2]): 32 fold; Ki (sigma 2 receptor [5]): 100 nM
6.37 ± 0.07 | 442 | 5 | 2100 | 5.68 ± 0.07 | C=CCOC(=O)N1CC[C@@H]2C[C@@H]1c1cc(N3CCN(C)CC3)ccc12 [Compound 37] | 
7.79 ± 0.05 | 16 | 11 | 172 | 6.76 ± 0.05 | C=CCCN1CCN(c2ccc3c(c2)[C@H]2C[C@H]3CCN2C(=O)OCc2ccccc2)CC1 [Compound 29] | 
 |  |  |  |  | OCCN1CCN(CCCN2c3ccccc3C=Cc3ccccc32)CC1 [opipramol] | affinity for σ2R (σ2R): appreciable affinity
 |  |  |  |  | O=C(OCc1ccccc1)N1CC[C@@H]2C[C@@H]1c1cc(N3CCOCC3)ccc12 [Compound 16] | inhibition at 10 µM (sigma 1 receptor [1]): < 50%; sigma receptor binding (in words) (sigma 2 receptor [2]): did not bind; inhibition at 10 µM (sigma 2 receptor [5]): < 50%
 |  |  |  |  | CN1CCN(c2ccc3c(c2)C2CC3CCN2C(=O)C2CCCCC2)CC1 (racemic) [(±)-TH-1-106, (±)-Cyclohexyl(8-(4-methylpiperazin-1-yl)-1,3,4,5-tetrahydro-2H-1,5-methanobenzo[c]azepin-2-yl)methanone] | Ki (sigma 1 receptor [1]; σ1 Ki (nM)): 1420 nM; Ki (sigma 2 receptor [5]): 144 nM
7.64 ± 0.07 | 23 | 3 | 62 | 7.21 ± 0.05 | CC(C)=CCN1CCN(c2ccc3c(c2)[C@H]2C[C@H]3CCN2C(=O)OCc2ccccc2)CC1 [Compound 30] | 
 |  |  |  |  | CN1CCN(c2ccc3c(c2)[C@H]2C[C@@H]3CCN2C(=O)OCc2ccccc2)CC1 [SAS-0132] | DHPG-mediated increase in LTD [7]: blocked; concentration at which cytotoxicity begins (neuroblastoma cells [8]): around 30 microM; toxicity in MTT assay (in words) (neuroblastoma cells [8]): not toxic at low doses; brain levels of CD14 [9]: not statistically significant; brain levels of IL-1β [9]: significant reduction; brain levels of TNFα [9]: not statistically significant; DKR-1051-induced calcium response (neuroblastoma cells [10]): concentration-dependent attenuation; intracellular Ca2+ concentration (neuroblastoma cells [10]; concentrations up to 30 μM): does not induce significant increases; spatial- and long term memory, Barnes Maze [4]: performed significantly better
6.45 ± 0.06 | 357 | 1 | 294 | 6.53 ± 0.08 | CN1CCN(c2ccc3c(c2)[C@H]2C[C@H]3CCN2C(=O)CCc2ccccc2)CC1 [Compound 36] | 
 | 746 | 5 | 3520 |  | Clc1cccc(CN2CC[C@@H]3C[C@@H]2c2cc(N4CCCCC4)ccc23)c1 [Compound 38] | Ki (sigma 1 receptor [1]; σ1 pKi ± SEM): 3160 nM; Ki (sigma 2 receptor [5]): 794 nM
7.36 ± 0.08 | 43 | 4 | 156 | 6.81 ± 0.09 | CN1CC[C@@H]2C[C@@H]1c1cc(-c3ccc(C(F)(F)F)cc3)ccc12 [Compound 41] | 
 |  |  |  |  | O=C(OCc1ccccc1)N1CC[C@@H]2C[C@@H]1c1cc(Cl)ccc12 [Compound 12] | inhibition at 10 µM (sigma 1 receptor [1]): < 50%; inhibition at 10 µM (sigma 2 receptor [5]): < 50%
5.9 ± 0.1 | 1260 | 4 | 4540 | 5.34 ± 0.09 | Fc1ccccc1CN1CC[C@@H]2C[C@@H]1c1cc(N3CCOCC3)ccc12 [Compound 40] | preference / selectivity for σ2R relative to σ1R (sigma 2 receptor [2]): 4 fold
 | 58 |  |  |  | CCCOC(=O)CCN1CCN(c2ccc3c(c2)[C@H]2C[C@H]3CCN2C(=O)OCc2ccccc2)CC1 | 
